Data taken from PubChem BioAssay AID1259407 (Chemical Carcinogenesis Research Information System (CCRIS), 2018).
Active and inactive are the calls of the source. The rule behind the calls is not given here.

Test system: CCRIS mutagenicity, Ames/micronucleus/aberration tests
Assay: CCRIS mutagenicity studies
[1] = Test System: AMES SALMONELLA TYPHIMURIUM, Strain/Indicator: TA98, Metabolic Activation: NONE, Method: STANDARD PLATE
[2] = Test System: AMES SALMONELLA TYPHIMURIUM, Strain/Indicator: TA98, Metabolic Activation: RAT, LIVER, S-9, AROCLOR 1254, Method: STANDARD PLATE
[3] = Test System: AMES SALMONELLA TYPHIMURIUM, Strain/Indicator: TA100, Metabolic Activation: NONE, Method: STANDARD PLATE
[4] = Test System: AMES SALMONELLA TYPHIMURIUM, Strain/Indicator: TA100, Metabolic Activation: RAT, LIVER, S-9, AROCLOR 1254, Method: STANDARD PLATE
[5] = Test System: AMES SALMONELLA TYPHIMURIUM, Strain/Indicator: TA1535, Metabolic Activation: NONE, Method: STANDARD PLATE
[6] = Test System: AMES SALMONELLA TYPHIMURIUM, Strain/Indicator: TA1535, Metabolic Activation: RAT, LIVER, S-9, AROCLOR 1254, Method: STANDARD PLATE
[7] = Test System: AMES SALMONELLA TYPHIMURIUM, Strain/Indicator: TA1537, Metabolic Activation: NONE, Method: STANDARD PLATE
[8] = Test System: AMES SALMONELLA TYPHIMURIUM, Strain/Indicator: TA1537, Metabolic Activation: RAT, LIVER, S-9, AROCLOR 1254, Method: STANDARD PLATE
[9] = Test System: AMES SALMONELLA TYPHIMURIUM, Strain/Indicator: TA1538, Metabolic Activation: NONE, Method: STANDARD PLATE
[10] = Test System: AMES SALMONELLA TYPHIMURIUM, Strain/Indicator: TA1538, Metabolic Activation: RAT, LIVER, S-9, AROCLOR 1254, Method: STANDARD PLATE
[11] = Test System: Ames Salmonella typhimurium, Strain/Indicator: TA98, Metabolic Activation: None, Method: Preincubation
[12] = Test System: Ames Salmonella typhimurium, Strain/Indicator: TA100, Metabolic Activation: None, Method: Preincubation
[13] = Test System: Ames Salmonella typhimurium, Strain/Indicator: TA1535, Metabolic Activation: None, Method: Preincubation
[14] = Test System: Ames Salmonella typhimurium, Strain/Indicator: TA1537, Metabolic Activation: None, Method: Preincubation
[15] = Test System: E. coli, Strain/Indicator: WP2uvrA/pKM101, Metabolic Activation: None, Method: Preincubation
[16] = Test System: AMES SALMONELLA TYPHIMURIUM, Strain/Indicator: TA98, Metabolic Activation: HAMSTER, LIVER, S-9, AROCLOR 1254, Method: STANDARD PLATE
[17] = Test System: AMES SALMONELLA TYPHIMURIUM, Strain/Indicator: TA100, Metabolic Activation: HAMSTER, LIVER, S-9, AROCLOR 1254, Method: STANDARD PLATE

CCCCCCCCSCn1cc[n+](C)c1
mutagenic call [1]: inactive; negative | mutagenic call [2]: inactive; negative | mutagenic call [3]: inactive; negative | mutagenic call [4]: inactive; negative | mutagenic call [5]: inactive; negative | mutagenic call [6]: inactive; negative | mutagenic call [7]: inactive; negative | mutagenic call [8]: inactive; negative | mutagenic call [9]: inactive; negative | mutagenic call [10]: inactive; negative

Clc1cc2c3ccccc3ccc2c2ccccc12
mutagenic call [2]: inactive; negative | mutagenic call [4]: active; positive

N#CC(C#N)=Cc1ccc([N+](=O)[O-])o1
mutagenic call (Test System: AMES SALMONELLA TYPHIMURIUM, Strain/Indicator: TA98, Metabolic Activation: NONE, Method: PREINCUBATION): active; positive

O=Cc1ccc(COS(=O)(=O)O)o1
mutagenic call [1]: inactive; negative | mutagenic call [3]: active; positive | mutagenic call (Test System: AMES SALMONELLA TYPHIMURIUM, Strain/Indicator: TA104, Metabolic Activation: NONE, Method: PREINCUBATION): active; positive

O=C1NC(=O)c2ccccc21
mutagenic call [11]: inactive; negative | mutagenic call (Test System: Ames Salmonella typhimurium, Strain/Indicator: TA98, Metabolic Activation: Rat, Liver, S-9, Phenobarbital and 5,6-benzoflavone, Method: Preincubation): inactive; negative | mutagenic call [12]: inactive; negative | mutagenic call (Test System: Ames Salmonella typhimurium, Strain/Indicator: TA100, Metabolic Activation: Rat, Liver, S-9, Phenobarbital and 5,6-benzoflavone, Method: Preincubation): inactive; negative | mutagenic call [13]: inactive; negative | mutagenic call (Test System: Ames Salmonella typhimurium, Strain/Indicator: TA1535, Metabolic Activation: Rat, Liver, S-9, Phenobarbital and 5,6-benzoflavone, Method: Preincubation): inactive; negative | mutagenic call [14]: inactive; negative | mutagenic call (Test System: Ames Salmonella typhimurium, Strain/Indicator: TA1537, Metabolic Activation: Rat, Liver, S-9, Phenobarbital and 5,6-benzoflavone, Method: Preincubation): inactive; negative | mutagenic call [15]: inactive; negative | mutagenic call (Test System: E. coli, Strain/Indicator: WP2uvrA/pKM101, Metabolic Activation: Rat, Liver, S-9, Phenobarbital and 5,6-benzoflavone, Method: Preincubation): inactive; negative

CC1(C)[C@@H]2CC[C@@]1(C)C(=O)C2=O
mutagenic call (Test System: AMES SALMONELLA TYPHIMURIUM, Strain/Indicator: TA97A, Metabolic Activation: NONE, Method: STANDARD PLATE): inactive; negative | mutagenic call (Test System: AMES SALMONELLA TYPHIMURIUM, Strain/Indicator: TA97A, Metabolic Activation: RAT LIVER S-9, AROCLOR 1254, Method: STANDARD PLATE): inactive; negative | mutagenic call [16]: inactive; negative | mutagenic call [1]: inactive; negative | mutagenic call (Test System: AMES SALMONELLA TYPHIMURIUM, Strain/Indicator: TA98, Metabolic Activation: RAT LIVER S-9, AROCLOR 1254, Method: STANDARD PLATE): inactive; negative | mutagenic call [2]: inactive; negative | mutagenic call [17]: inactive; negative | mutagenic call [3]: inactive; negative | mutagenic call (Test System: AMES SALMONELLA TYPHIMURIUM, Strain/Indicator: TA100, Metabolic Activation: RAT LIVER S-9, AROCLOR 1254, Method: STANDARD PLATE): inactive; negative | mutagenic call [4]: inactive; negative | mutagenic call (Test System: AMES SALMONELLA TYPHIMURIUM, Strain/Indicator: TA102, Metabolic Activation: NONE, Method: STANDARD PLATE): inactive; negative | mutagenic call (Test System: AMES SALMONELLA TYPHIMURIUM, Strain/Indicator: TA102, Metabolic Activation: RAT LIVER S-9, AROCLOR 1254, Method: STANDARD PLATE): inactive; negative | mutagenic call (Test System: AMES SALMONELLA TYPHIMURIUM, Strain/Indicator: TA1535, Metabolic Activation: HAMSTER, LIVER, S-9, AROCLOR 1254, Method: STANDARD PLATE): inactive; negative | mutagenic call [5]: inactive; negative | mutagenic call [6]: inactive; negative | mutagenic call (Test System: AMES SALMONELLA TYPHIMURIUM, Strain/Indicator: TA1537, Metabolic Activation: HAMSTER, LIVER, S-9, AROCLOR 1254, Method: STANDARD PLATE): inactive; negative | mutagenic call [7]: inactive; negative | mutagenic call [8]: inactive; negative | mutagenic call (Test System: AMES SALMONELLA TYPHIMURIUM, Strain/Indicator: TA1538, Metabolic Activation: HAMSTER, LIVER, S-9, AROCLOR 1254, Method: STANDARD PLATE): inactive; negative | mutagenic call [9]: inactive; negative | mutagenic call [10]: inactive; negative | mutagenic call (Test System: Mouse lymphoma, Strain/Indicator: L5178Y (tk+/tk-), Metabolic Activation: None, Method: Suspension/plate): active; positive | mutagenic call (Test System: Mouse lymphoma, Strain/Indicator: L5178Y (tk+/tk-), Metabolic Activation: Rat, Liver, S-9, Aroclor 1254, Method: Suspension/plate): inactive; negative

Clc1ccc(C(c2ccccc2Cl)C(Cl)(Cl)Cl)cc1 (stereo not given)
mutagenic call (End Point: IN VIVO CHROMOSOMAL ABERRATIONS, Test System: MAMMARY GLAND CELLS USING DUAL PROBE FISH, Species: RAT, Strain/Sex: SPRAGUE-DAWLEY/FEMALE, Route: SUBCUTANEOUS INJECTION): active; positive (polyploidy) | mutagenic call (End Point: IN VIVO MICRONUCLEUS, Test System: MAMMARY GLAND CELLS, Species: RAT, Strain/Sex: SPRAGUE-DAWLEY/FEMALE, Route: SUBCUTANEOUS INJECTION): inactive; negative

Cc1cc(S(=O)(=O)O)c(N)cc1Cl
mutagenic call [16]: active; positive | mutagenic call [1]: inactive; negative | mutagenic call [2]: active; positive | mutagenic call [17]: inactive; negative | mutagenic call [3]: inactive; negative | mutagenic call [4]: inactive; negative | mutagenic call [11]: inactive; negative | mutagenic call (Test System: Ames Salmonella typhimurium, Strain/Indicator: TA98, Metabolic Activation: Rat, Liver, S9, Sodium phenobarbital and 5,6-benzoflavone (10%), Method: Preincubation): inactive; negative | mutagenic call [12]: inactive; negative | mutagenic call (Test System: Ames Salmonella typhimurium, Strain/Indicator: TA100, Metabolic Activation: Rat, Liver, S9, Sodium phenobarbital and 5,6-benzoflavone (10%), Method: Preincubation): inactive; negative | mutagenic call [13]: inactive; negative | mutagenic call (Test System: Ames Salmonella typhimurium, Strain/Indicator: TA1535, Metabolic Activation: Rat, Liver, S9, Sodium phenobarbital and 5,6-benzoflavone (10%), Method: Preincubation): inactive; negative | mutagenic call [14]: inactive; negative | mutagenic call (Test System: Ames Salmonella typhimurium, Strain/Indicator: TA1537, Metabolic Activation: Rat, Liver, S9, Sodium phenobarbital and 5,6-benzoflavone (10%), Method: Preincubation): inactive; negative | mutagenic call [15]: inactive; negative | mutagenic call (Test System: E. coli, Strain/Indicator: WP2uvrA/pKM101, Metabolic Activation: Rat, Liver, S9, Sodium phenobarbital and 5,6-benzoflavone (10%), Method: Preincubation): inactive; negative | mutagenic call (Test System: MOUSE LYMPHOMA, Strain/Indicator: L5178Y (TK+/TK-), Metabolic Activation: NONE, Method: SUSPENSION/PLATE): inactive; negative. reevaluation of results: negative | mutagenic call (Test System: MOUSE LYMPHOMA, Strain/Indicator: L5178Y (TK+/TK-), Metabolic Activation: RAT, LIVER, S-9, AROCLOR 1254, Method: SUSPENSION/PLATE): inactive; negative. reevaluation of results: equivocal | mutagenic call (Test System: UDS RODENT HEPATOCYTES, Strain/Indicator: THY INCORP (NON-S-PHASE), Metabolic Activation: NONE, Method: AUTORADIOGRAPHY): inactive; negative
